In patent US20050124690A1, “Pharmaceutical composition for the treatment of seborrhea containing 4-hydroxy-5-methoxy-4-[2-methyl-3(3-methyl-2-butenyl)-2-oxiranyl]-1-oxaspiro[2,5]octan-6-one” (priority 2002, published 2005):

Legend:
[1] = tested on: four-week old female rats; assay: Acute dermal toxicity test; format: in vivo; details: 4000 mg/kg applied to about 10% of body surface area of shaved rats; observation for 15 days
Description: 4-hydroxy-5-methoxy-4-[2-methyl-3-(3-methyl-2-butenyl)-2-oxiranyl]-1-oxaspiro[2,5]octan-6-one, which was isolated from the culture filtrate and then purified, was tested for acute dermal toxicity using four-week old female rats, according to the standards provided by the Korean Food & Drug Administration. After the rats were shaved, 4000 mg/kg (body weight) of the compound was uniformly applied to about 10% of body surface area of rats.

[2] = tested on: Pityrosporum ovale; assay: Minimum inhibition concentration (MIC) on Sabouraud's dextrose solid medium; format: cell-based; details: Malassezia furfur; solid medium with 1% corn oil and 0.1% Tween-80; 30° C., 3 to 5 days; naked eye
Description: For use in this test, P. ovale was cultured in Sabouraud's dextrose solid medium containing 1% corn oil and 0.1% Tween-80 at 30° C. for 2 days. After Sabouraud's dextrose solid medium containing 1% corn oil and 0.1% Tween-80 was aliquotted onto 6 cm plane plates, 4-hydroxy-5-methoxy-4-[2-methyl-3-(3-methyl-2-butenyl)-2-oxiranyl]-1-oxaspiro[2,5]octan-6-one was added in various concentration. When the medium was hardened, 150 μl of the cultured P. ovale was smeared onto the medium, followed by incubation at 30° C. for 3 to 5 days. Observing with naked eye, a minimum concentration capable of inhibiting the growth of the fungus was determined as MIC (Minimum Inhibition Concentration).
MIC versus P. ovale of 4-hydroxy-5-methoxy-4-[2-methyl-3-(3-methyl-2-butenyl)-2-oxiranyl]-1-oxaspiro[2,5]octan-6-one is given in Table 1, below.

[3] = tested on: Pityrosporum ovale; assay: Paper disc diffusion test for antifungal activity; format: cell-based; details: 45 μl of 0.1% acetone solution on paper disc; 30° C., 3 days
Description: A paper disc diffusion method was used to investigate antifungal activity against a fungus, Pityrosporum ovale. Sabouraud's dextrose solid medium containing 1% of corn oil and 0.1% Tween-80 was aliquotted onto 87 mm plane plates, and allowed to harden. In order to examine antifungal activity against P. ovale, […] of P. ovale cultured in Sabouraud's dextrose solid medium at 30° C. for 2 days was smeared onto the plates, and then dried. 45 μl of an acetone solution containing 0.1% of 4-hydroxy-5-methoxy-4-[2-methyl-3-(3-methyl-2-butenyl)-2-oxiranyl]-1-oxaspiro[2,5]octan-6-one was aliquated onto paper discs, and, after completely evaporating off the acetone, put onto the P. ovale-smeared medium. Plates not treated with 4-hydroxy-5-methoxy-4-[2-methyl-3-(3-methyl-2-butenyl)-2-oxiranyl]-1-oxaspiro[2,5]octan-6-one were used as controls. Thereafter, incubation was carried out at 30° C. for 3 days, and it was observed whether a growth inhibition area formed around the discs or not.

Compound: COC1C(=O)CCC2(CO2)C1(O)C1(C)OC1CC=C(C)C (stereo not drawn) [4-hydroxy-5-methoxy-4-[2-methyl-3-(3-methyl-2-butenyl)-2-oxiranyl]-1-oxaspiro[2,5]octan-6-one]
- irritation, such as erythema or crusting [1]: not detected irritation
- MIC [2]: < 2 µg/mL
- antifungal activity against P. ovale (growth inhibition area around the discs) [3]: found to have antifungal activity
